Patent US20240091203A1, “METHODS FOR TREATING NON-OBSTRUCTIVE HYPERTROPHIC CARDIOMYOPATHY” (Cytokinetics, Incorporated, priority 2022, published 2024)
Where two headings read alike, the source gives them in different places.

Tests used:
healthy adults = test system: healthy adults; set-up: species or system human; conditions: in vivo
Source text: Study Overview and Ethics. The study used a randomized, placebo-controlled, single-ascending dose (SAD) and multiple-ascending dose (MAD) design (FIG. 2). […] Dose escalation was to be stopped when this range was achieved, or when a non-tolerated dose was identified, if earlier.
Participants and Treatments. To be eligible for this study, participants were to be healthy adults aged 18 to 55 years, with body mass index of 18.0 to 32.0 kg/m^2, normal electrocardiogram (ECG) and clinical laboratory values, or only minor abnormalities that were deemed not clinically significant. Participants also had to have normal cardiac structure and function, with LVEF ≥60% for the first 4 SAD cohorts, ≥65% for subsequent SAD cohorts, all MAD cohorts, and the food-effect cohort, and ≥55% for the CYP2D6-PM cohort. Before the study, participants were not allowed to use any prescription medication within 14 days, over-the-counter medication within 7 days (except acetaminophen), or tobacco or nicotine within 3 months; in addition, they were not permitted to consume alcohol, caffeine, or grapefruit within 48 h before study check-in.
A randomization schedule was centrally generated for each cohort and treatment period. […] Study drug was administered following an overnight fast, except during the fed period in the food-effect cohort.
Single-ascending dose (SAD) cohorts. The SAD portion of the study used a randomized, double-blind, placebo-controlled, sequential, escalating-dose design, in which participants received single-ascending oral doses of the study drug. Seven cohorts were dosed in sequence (FIG. 2).
Recommendations regarding dose escalation in the SAD cohorts—and in the MAD cohorts described below—were made by the treating investigator (who was blinded to treatment group) and endorsed or not by the Dose Level Review Committee (DLRC), who were unblinded. […] Criteria for escalation included that no more than 2 participants in a dose group developed an LVEF <50% and no individual developed an LVEF <45%.
Multiple-ascending dose (MAD) cohorts. The MAD cohorts also used a randomized, double-blind, placebo-controlled, sequential design.
CYP2D6 genotypes were determined at screening for all study participants; those identified as CYP2D6-PMs were excluded from the SAD and MAD cohorts but were invited to participate in the CYP2D6-PM cohort. The first individual in the CYP2D6-PM cohort was dosed after the SAD 25-mg cohort (FIG. 2). […] Nine participants were randomized (7:2) with a sentinel dosing group consisting of the first 2 participants treated.
Food-effect cohort. […] Participants were randomized in a 1:1 ratio to 1 of 2 sequences: fasted/fed or fed/fasted.
Safety and tolerability. Safety was assessed by the incidence of adverse events (AEs) and by incidence of reduced LVEF. Treatment-emergent AEs (TEAE) were defined as AEs that began or increased after study drug administration. All AEs were coded using the Medical Dictionary for Regulatory Activities version 21.1 and graded using the National Cancer Institute Common Terminology Criteria for AEs (version 4.03) 5-point severity scale. Each AE was judged as either related or unrelated to the study drug by the treating investigator. Clinical laboratory tests were obtained at regular intervals in all cohorts.
For safety monitoring, participants in all cohorts had periodic echocardiograms, which were assessed by a cardiologist. In the SAD and MAD cohorts, echocardiograms were also reviewed by an echocardiography core laboratory for PD assessments, as described below. In addition, participants in all cohorts were monitored with continuous 12-lead ECG recording using Holter monitors. For safety monitoring, a single 12-lead ECG was extracted at screening, pre-dose, and periodically throughout follow-up, and interpreted by the investigator. […]

[1] = test system: patients with symptomatic non-obstructive HCM (nHCM) or HCM with MVO; experiment: Phase 2 trial (Example 2): exploratory responder analysis in subgroups; assay type: in vivo, human
Method: An exploratory responder analysis was performed to consider treatment effect in certain subgroups of patients.

CCc1nc(-c2ccc3c(c2)CC[C@H]3NC(=O)c2cnn(C)c2)no1 [aficamten, (R)—N-(5-(5-ethyl-1,2,4-oxadiazol-3-yl)-2,3-dihydro-1H-inden-1-yl)-1-methyl-1H-pyrazole-4-carboxamide]
Echocardiogram-related AE of decreased ejection fraction <45%: Onset (time after drug dose) (healthy adults; female, human): 1.4 h
QTcF (healthy adults; human): ≤ 450 ms
increase in QTcF interval (healthy adults; human): ≤ 30 ms
participants with echocardiogram-related AEs of decreased ejection fraction <45% (healthy adults; human): 3 participants
time to resolution of echocardiogram-related AEs of decreased ejection fraction (healthy adults; human): 2.5 to 4.6 h
LVEF of 1 participant after cohort expansion (healthy adults): < 45%
decrease in LVEF of 1 participant after cohort expansion (healthy adults): > 15%
discontinuation of the study due to AEs (healthy adults): no participants discontinued
mean safety ECG parameters (healthy adults): within normal limits
post-dose LVEF of sentinel participant (healthy adults): < 45%
post-dose LVEF of the participant with LVEF <50% (healthy adults): 46.2%
serum chemistry, hematology, or urinalysis findings (healthy adults): No clinically significant
vital signs (healthy adults): within normal limits
Echocardiogram-related AE of decreased ejection fraction <45%: Onset (time after drug dose) (healthy adults; male, human): 1.5 h
responder analysis: treatment effect in other subgroups ([1]; beta-blockers or not, elevated TnI or E/e′ or not, genetic or family history of HCM or not): Consistent treatment effects
responder analysis: treatment effect by BMI ([1]; patients with BMI ≥30 compared to BMI <30): potential differential treatment effect
